Results published in patent publication US20260217706A1, “HETEROCYCLIC COMPOUNDS, PREPARATION METHOD THEREFOR AND USE THEREOF” (GUANGZHOU YUFAN NANTU BIOTECHNOLOGIES CO., LTD, priority 2023, published 2026).

What was measured:
CBL-B protein = CBL-B protein (Homo sapiens, UniProt Q13191); experiment: CBL-B binding experiment (Streptavidin-Tb cryptate / Ligand L1 displacement); conditions: 8 nM CBL-B protein, 25° C., 60 minutes; Ki=Relative IC50/2
Method in brief: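 Buffer was 20 mM HEPES pH 7.5, 150 mM NaCl, 0.01% Triton X-100, 0.5 mM TCEP and BSA. Ten-point compound dilutions were incubated with 8 nM CBL-B for 60 min at 25° C., then read by luminescence after another 60 min at room temperature. IC50 came from a four-parameter fit, with Ki = relative IC50/2.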

[1] = test system: anti-CD3 activated human PBMCs; experiment: Effect of compounds on the level of IL-2 secretion by anti-CD3 activated human PBMCs (IL-2 ELISA); type: cell-based; conditions: compound concentration at which fold change in IL-2 = 5; hPBMCs, CD3 antibody 2 μg/mL, 48 h, compound from 3 μM
Procedure: 2. Inoculate the resuspended cells into a 96-well cell culture plate at 200 ul/well of cell suspension, and incubate in a 37° C. cell incubator for 1 h;
3. Adjust the compound concentration with DMSO, starting at a final concentration of 3 μM, and perform a 3-fold dilution sequentially for 10 concentration gradients, with an additional DMSO control well set up; and
4. Adjust the CD3 antibody to an appropriate concentration to achieve a final concentration of 2 μg/mL, mix thoroughly, and incubate in a 37° C. cell incubator for 48h.
5. After 48 h, centrifuge at 1500 rpm for 5 min to collect the supernatant of the culture medium for the human IL-2 ELISA test.
The OD values obtained from the ELISA test are converted into the fold change (FC) in IL-2 concentration. […] The EC50 is calculated using GraphPad Prism. When the fold change=5, the corresponding compound concentration is CFC=5 (in nM).

CBL-B protein, sequence (Q13191 whole entry): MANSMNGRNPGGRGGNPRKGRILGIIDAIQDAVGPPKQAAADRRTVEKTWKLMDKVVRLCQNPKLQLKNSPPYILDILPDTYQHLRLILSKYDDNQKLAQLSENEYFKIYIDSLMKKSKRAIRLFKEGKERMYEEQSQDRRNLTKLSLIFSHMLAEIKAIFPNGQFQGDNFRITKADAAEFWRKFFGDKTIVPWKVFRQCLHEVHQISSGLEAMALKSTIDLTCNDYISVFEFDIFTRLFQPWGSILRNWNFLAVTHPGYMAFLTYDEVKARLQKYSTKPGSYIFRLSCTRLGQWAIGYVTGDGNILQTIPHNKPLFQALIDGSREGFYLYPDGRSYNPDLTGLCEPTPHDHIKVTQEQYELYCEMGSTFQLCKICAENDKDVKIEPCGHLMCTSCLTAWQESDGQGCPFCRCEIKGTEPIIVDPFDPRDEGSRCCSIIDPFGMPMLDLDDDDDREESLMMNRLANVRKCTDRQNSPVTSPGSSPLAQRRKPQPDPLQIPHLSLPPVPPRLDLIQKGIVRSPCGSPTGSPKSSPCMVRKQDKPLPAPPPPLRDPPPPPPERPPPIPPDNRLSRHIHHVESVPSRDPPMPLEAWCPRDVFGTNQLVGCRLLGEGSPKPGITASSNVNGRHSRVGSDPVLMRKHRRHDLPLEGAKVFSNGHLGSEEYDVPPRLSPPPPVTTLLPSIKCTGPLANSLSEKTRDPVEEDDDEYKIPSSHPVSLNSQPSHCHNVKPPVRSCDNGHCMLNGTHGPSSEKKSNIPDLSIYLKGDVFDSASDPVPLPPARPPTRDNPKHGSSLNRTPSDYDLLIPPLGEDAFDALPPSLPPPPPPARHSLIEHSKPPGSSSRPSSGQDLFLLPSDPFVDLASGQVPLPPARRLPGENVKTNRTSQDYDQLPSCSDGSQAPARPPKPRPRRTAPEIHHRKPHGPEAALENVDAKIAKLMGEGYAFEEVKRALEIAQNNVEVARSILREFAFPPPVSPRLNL

Ki (CBL-B protein)	Compound	IL-2 CFC=5/nM [1]
< 50 nM	C[C@H]1CCCN(Cc2cc3c(C(F)(F)F)cn(-c4cccc(C(C)(C)c5nncn5C)c4)c(=O)c3[nH]2)C1 [Compound T017, 6-[3-[1-methyl-1-(4-methyl-1,2,4-triazol-3-yl)ethyl]phenyl]-2-[[(3S)-3-methyl-1-piperidyl]methyl]-4-(trifluoromethyl)-1H-pyrrolo[2,3-c]pyridin-7-one]	<500 nM
< 50 nM	CCN(CC)Cc1cc2c(C(F)(F)F)cn(-c3cccc([C@]4(c5nncn5C)C[C@@H](C)C4)c3)c(=O)c2[nH]1 [Compound T018, 2-((diethylamino)methyl)-6-(3-((1s,3s)-3-methyl-1-(4-methyl-4H-1,2,4-triazol-3-yl)cyclobutyl)phenyl)-4-(trifluoromethyl)-1,6-dihydro-7H-pyrrolo[2,3-c]pyridin-7-one]	<500 nM
< 50 nM	CCN(Cc1cc2c(C(F)(F)F)cn(-c3cccc(C4(c5nncn5C)CCC4)c3)c(=O)c2[nH]1)C(C)C [Compound T019, 2-[[ethyl(isopropyl)amino]methyl]-6-[3-[1-(4-methyl-1,2,4-triazol-3-yl)cyclobutyl]phenyl]-4-(trifluoromethyl)-1H-pyrrolo[2,3-c]pyridin-7-one]	<500 nM
< 50 nM	Cn1cnnc1C1(c2cccc(-n3cc(C(F)(F)F)c4cc(CN5CCC6(CC6)C5)[nH]c4c3=O)c2)CCC1 [Compound T023, 2-(5-azaspiro[2.4]heptan-5-ylmethyl)-6-[3-[1-(4-methyl-1,2,4-triazol-3-yl)cyclobutyl]phenyl]-4-(trifluoromethyl)-1H-pyrrolo[2,3-c]pyridin-7-one]	<500 nM
< 50 nM	Cn1cnnc1C1(c2cccc(-n3cc(C(F)(F)F)c4cc(CN5CC[C@H]6C[C@H]6C5)[nH]c4c3=O)c2)CCC1 [Compound T024, 2-[[(1R,6R)-3-azabicyclo[4.1.0]heptan-3-yl]methyl]-6-[3-[1-(4-methyl-1,2,4-triazol-3-yl)cyclobutyl]phenyl]-4-(trifluoromethyl)-1H-pyrrolo[2,3-c]pyridin-7-one]	<500 nM
< 50 nM	Cn1cnnc1C1(c2cccc(-n3cc(C(F)(F)F)c4cc(CN5CC[C@@H]6C[C@@H]6C5)[nH]c4c3=O)c2)CCC1 [Compound T025, 2-[[(1 S,6S)-3-azabicyclo[4.1.0]heptan-3-yl]methyl]-6-[3-[1-(4-methyl-1,2,4-triazol-3-yl)cyclobutyl]phenyl]-4-(trifluoromethyl)-1H-pyrrolo[2,3-c]pyridin-7-one]	<500 nM
< 50 nM	Cn1cnnc1C1(c2cccc(-n3cc(C(F)(F)F)c4cc(CN5CCC[C@H]6C[C@H]65)[nH]c4c3=O)c2)CCC1 [Compound T026, 2-(((1R,6S)-2-azabicyclo [4.1.0]heptan-2-yl)methyl)-6-(3-(1-(4-methyl-4H-1,2,4-triazol-3-yl)cyclobutyl)phenyl)-4-(trifluoromethyl)-1,6-dihydro-7H-pyrrolo[2,3-c]pyridin-7-one]	<500 nM
< 50 nM	Cn1cnnc1C1(c2cccc(-n3cc(C(F)(F)F)c4cc(CN5CCC[C@@H]6C[C@@H]65)[nH]c4c3=O)c2)CCC1 [Compound T027, 2-(((1 S,6R)-2-azabicyclo [4.1.0]heptan-2-yl)methyl)-6-(3-(1-(4-methyl-4H-1,2,4-triazol-3-yl)cyclobutyl)phenyl)-4-(trifluoromethyl)-1,6-dihydro-7H-pyrrolo[2,3-c]pyridin-7-one]	<500 nM
< 50 nM	Cn1cnnc1[C@]1(c2cccc(-n3cc(C(F)(F)F)c4cc(CN5CC6CC6C5)[nH]c4c3=O)c2)C[C@H](C)C1 (stereo partly drawn) [Compound T028, 2-((3-azabicyclo[3.1.0]hexan-3-yl)methyl)-6-(3-((1s,3s)-3-methyl-1-(4-methyl-4H-1,2,4-triazol-3-yl)cyclobutyl)phenyl)-4-(trifluoromethyl)-1,6-dihydro-7H-pyrrolo[2,3-c]pyridin-7-one]	<500 nM
< 50 nM	CCCN(Cc1cc2c(C(F)(F)F)cn(-c3cccc([C@]4(c5nncn5C)C[C@@H](C)C4)c3)c(=O)c2[nH]1)C(C)C [Compound T029, 2-((isopropyl(propyl)amino)methyl)-6-(3-((1s,3s)-3-methyl-1-(4-methyl-4H-1,2,4-triazol-3-yl)cyclobutyl)phenyl)-4-(trifluoromethyl)-1,6-dihydro-7H-pyrrolo[2,3-c]pyridin-7-one]	<500 nM
< 50 nM	C[C@H]1CCCN(Cc2cc3c(C4CC4)cn(-c4cccc(C5(c6nncn6C)CC6(CC6)C5)c4)c(=O)c3[nH]2)C1 [Compound T030, 4-cyclopropyl-2-[[(3S)-3-methyl-1-piperidyl]methyl]-6-[3-[5-(4-methyl-1,2,4-triazol-3-yl)spiro[2.3]hexan-5-yl]phenyl]-1H-pyrrolo[2,3-c]pyridin-7-one]	<500 nM
< 50 nM	C[C@H]1CCCN(Cc2cc3c(C(F)(F)F)cn(-c4cccc(C5(c6nncn6C)CCC5)c4)c(=O)c3[nH]2)C1 [Compound T033, 2-[[(3S)-3-methyl-1-piperidyl]methyl]-6-[3-[1-(4-methyl-1,2,4-triazol-3-yl)cyclobutyl]phenyl]-4-(trifluoromethyl)-1H-pyrrolo[2,3-c]pyridin-7-one]	<500 nM
< 50 nM	Cn1cnnc1C1(c2cccc(-n3cc(C(F)(F)F)c4cc(CNCCC5CCC5)[nH]c4c3=O)c2)CCC1 [Compound T034, 2-(((2-cyclobutylethyl)amino)methyl)-6-(3-(1-(4-methyl-4H-1,2,4-triazol-3-yl)cyclobutyl)phenyl)-4-(trifluoromethyl)-1,6-dihydro-7H-pyrrolo[2,3-c]pyridin-7-one]	<500 nM
< 50 nM	Cn1cnnc1[C@]1(c2cccc(-n3cc(C(F)(F)F)c4cc(CNC5(C)CCC5)[nH]c4c3=O)c2)C[C@H](C)C1 [Compound T035, 6-(3-((1s,3s)-3-methyl-1-(4-methyl-4H-1,2,4-triazol-3-yl)cyclobutyl)phenyl)-2-(((1-methylcyclobutyl)amino)methyl)-4-(trifluoromethyl)-1,6-dihydro-7H-pyrrolo[2,3-c]pyridin-7-one]	<500 nM
< 50 nM	C[C@H]1CCCN(Cc2cc3c(C4CC4)cn(-c4cccc([C@]5(Cc6nncn6C)C[C@H](C)C5)c4)c(=O)c3[nH]2)C1 [Compound T037, 4-cyclopropyl-6-(3-((1s,3R)-3-methyl-1-((4-methyl-4H-1,2,4-triazol-3-yl)methyl)cyclobutyl)phenyl)-2-(((S)-3-methylpiperidin-1-yl)methyl)-1,6-dihydro-7H-pyrrolo[2,3-c]pyridin-7-one]	<500 nM
< 50 nM	Cn1cnnc1C1(c2cccc(-n3cc(C(F)(F)F)c4cc(CN5CCC[C@H](O)C5)[nH]c4c3=O)c2)CCC1 [Compound T038, 2-[[(3S)-3-hydroxy-1-piperidyl]methyl]-6-[3-[1-(4-methyl-1,2,4-triazol-3-yl)cyclobutyl]phenyl]-4-(trifluoromethyl)-1H-pyrrolo[2,3-c]pyridin-7-one]	<500 nM
< 50 nM	CCC(C)CN(C)Cc1cc2c(C(F)(F)F)cn(-c3cccc(C4(c5nncn5C)CCC4)c3)c(=O)c2[nH]1 (stereo not drawn) [Compound T040, 2-[[methyl(2-methylbutyl)amino]methyl]-6-[3-[1-(4-methyl-1,2,4-triazol-3-yl)cyclobutyl]phenyl]-4-(trifluoromethyl)-1H-pyrrolo[2,3-c]pyridin-7-one]	<500 nM
< 50 nM	CCN(Cc1cc2c(C(F)(F)F)cn(-c3cccc(C4(c5nncn5C)CCC4)c3)c(=O)c2[nH]1)CC(C)C [Compound T041, 2-[[ethyl(isobutyl)amino]methyl]-6-[3-[1-(4-methyl-1,2,4-triazol-3-yl)cyclobutyl]phenyl]-4-(trifluoromethyl)-1H-pyrrolo[2,3-c]pyridin-7-one]	<500 nM
< 50 nM	CCCN(Cc1cc2c(C(F)(F)F)cn(-c3cccc(C4(c5nncn5C)CCC4)c3)c(=O)c2[nH]1)C(C)C [Compound T042, 2-[[isopropyl(propyl)amino]methyl]-6-[3-[1-(4-methyl-1,2,4-triazol-3-yl)cyclobutyl]phenyl]-4-(trifluoromethyl)-1H-pyrrolo[2,3-c]pyridin-7-one]	<500 nM
< 50 nM	Cn1cnnc1[C@]1(c2cccc(-n3cc(C(F)(F)F)c4cc(CNCCC5CC5)[nH]c4c3=O)c2)C[C@H](C)C1 [Compound T045, 2-(((2-cyclopropylethyl)amino)methyl)-6-(3-((1s,3s)-3-methyl-1-(4-methyl-4H-1,2,4-triazol-3-yl)cyclobutyl)phenyl)-4-(trifluoromethyl)-1,6-dihydro-7H-pyrrolo[2,3-c]pyridin-7-one]	<500 nM

Compound	Ki (CBL-B protein)	IL-2 CFC=5/nM [1]
C[C@H](NCc1cc2c(C(F)(F)F)cn(-c3cccc(C4(c5nncn5C)CCC4)c3)c(=O)c2[nH]1)C(C)(C)C [Compound T043, (S)-2-(((3,3-dimethylbutan-2-yl)amino)methyl)-6-(3-(1-(4-methyl-4H-1,2,4-triazol-3-yl)cyclobutyl)phenyl)-4-(trifluoromethyl)-1,6-dihydro-7H-pyrrolo[2,3-c]pyridin-7-one]	< 50 nM	<500 nM
